From US20050042283A1, “Histamine and CCK2/gastrin receptor blockade in the treatment of acid-peptic disease and cancer” (UNIVERSITY OF MASSACHUSETTS, priority 2003, published 2005)
“And” between values parts separate entries of the source, which are not always exact repeats. Equal entries are not always repeated.

Tests used:
[1] = tested on: H. felis-infected INS-GAS mice; assay: Maximal gastric acid output by pyloric ligation; type: in vivo; conditions: 3 months treatment; for Reduction of gastric acid output: acid secretion over 4 hours
Experimental: (§1) Mice in group III were treated orally with the histamine H2 receptor antagonist loxtidine (in drinking water) at a dose of 0.5 g/L, while group IV mice received both drugs. For the 3 months drug study of inhibitory effects on maximal acid secretion, gastric atrophy, hyperplasia and dysplasia, 8 mice were prepared for each group. For the 6 months drug study of inhibitory effects on gastric carcinogenesis, 17 mice were prepared for each group.
The pyloric ligation method was used to measure maximal acid secretion as previously described (Chen, D. et al., 2004). Briefly, mice were fasted overnight and anesthetized by isoflurane inhalation. The abdomen was incised by midline celiotomy, the pylorus ligated firmly, and the abdomen closed with surgical sutures. After 4 hours, the mice were euthanized and gastric juice collected. The acidity of gastric juice was measured with a pH meter (AR 25; Fisher Scientific, Houston, Tex.) by 0.01 N NaOH titration and results expressed as μEq.

ECL cell = conditions: cited from earlier work
IFN-gamma = assay: Real-time RT-PCR of cytokine expression: IFN-gamma; type: in vivo; conditions: 6 months, versus untreated mice
Experimental: Real-time RT-PCR assay of growth factors and cytokine expression profiles Total RNAs were extracted from a sample of whole stomach from each animal with Trizol (Invitrogen, Calif.) and five micrograms of total RNA were used for first strand cDNA synthesis using Superscript II cDNA amplification System (Invitrogen, Calif.) following manufacturer's instructions. Real-time PCR was performed as above using RT-PCR primers for each gene as listed below. All primers were designed using Lasergene ver5.0 software (DNASTAR inc., Madison, Wis.). Results were calculated by minus delta delta threshold cycle (-ΔΔCt) method (Livak, K. J. et al., 2001). Briefly, the threshold cycle Ct1 of each sample reaction was deducted from the threshold cycle Ct2 of GAPDH reaction for normalization, and then deducted from the threshold cycle Ct3 of calibration control (45 cycles in this experiment), i.e., the final result was represented by the formula; Ct3-(Ct1-Ct2). […]

[2] = tested on: H. felis-infected INS-GAS mice; assay: Stomach wet-weight and gross stomach size; type: in vivo
From the text: The control group (A) included INS-GAS mice that were infected with H. felis but untreated, resulting in a total of 4 groups of mice (A-D). The INS-GAS (male) mice entered the study at 6-8 weeks of age, and were housed in 4 cages. There were 21 mice in each group, seven of which were euthanized after 3 months and 14 of which were euthanized after 6-7 months. The doses of medication are shown. Loxtidine was given in the drinking water while YF476 was given by subcutaneous injection once a week.
FIG. 4: Closed stomachs from INS-GAS/H. felis mice. Gross photos of representative stomachs from each of the four groups of 6 month H. felis-infected INS-GAS mice are shown. Mice were euthanized by CO2 inhalation and the stomachs were removed by […] of the esophagus and duodenum.
as §1

1-methyl-5-((3-(3-(1-piperidinylmethyl)phenoxy)propyl)amino)-1H-1,2,4-triazole-3-ethanol [Loxtidine]
Maximal gastric acid output (MAO), effect in words [1]: significantly inhibited | Reduction of gastric acid output [1]: 80% | Reduction of gastric acid output ([1]; listed as loxtidine): 83% | Tumor induction in rats (ECL cell; rat, in vivo): induction of ECLomas | Duration of administration after which ECL cell hyperplasia was seen (ECL cell; rats, Poynter et al.): 39 days | IFN-gamma expression level (IFN-gamma; listed as Loxtidine alone): significantly lower level | IFN-gamma expression level (IFN-gamma; listed as loxtidine alone): significantly down-regulated | Gross stomach size ([2]; 6 month H. felis-infected mice): significant reduction in apparent size | Stomach weight after treatment ([2]; untreated 1831 / ~1830 mg): ~400 mg and ~800 mg
